Source: ChEMBL document CHEMBL1151385, “Antineoplastic Agents 78. Isolation of Palystatins 1-3 From the Indian Ocean Palythoa liscia” (J Nat Prod, 1982)

How the values were obtained:
[1] = test system: Ehrlich; experiment: In vivo cytotoxicity against mouse EAC cells; format: functional, organism-based
[2] = test system: P388; experiment: In vivo cytotoxicity against mouse P388 cells assessed as life extension at 0.1 ug/kg; format: functional, organism-based

Compound: C=C(/C=C\C[C@@H](O)[C@@H](O)[C@H](O)C/C=C/C=C\[C@@H](O)C[C@@H]1O[C@H](C[C@@H](O)[C@H](O)C[C@H]2O[C@H]([C@H](O)[C@H](O)CC[C@H](O)/C=C/[C@H](C)[C@@H](O)C[C@]3(O)O[C@H](C[C@@H](O)CCCCCCC[C@@]45C[C@@H](C)C[C@@](C)(O4)[C@@H](C[C@@H](C)CCCCC[C@@H](O)[C@H](O)[C@H](O)[C@@H](O)[C@H](O)[C@H]4O[C@H](C[C@H](O)[C@H](O)/C(C)=C/[C@H](O)C[C@@H](C)[C@H](O)C(=O)N/C=C/C(=O)NCCCO)[C@H](O)[C@@H](O)[C@@H]4O)O5)[C@H](O)[C@@H](O)[C@H]3O)C[C@@H](O)[C@@H]2O)[C@@H](O)[C@H](O)[C@H]1O)CC[C@H](O)[C@@H](O)[C@H](O)[C@H](C)C[C@H]1O[C@H](/C=C\[C@@H](O)CC[C@@H]2C[C@@H]3C[C@H](O2)[C@@H](CC[C@H]2O[C@H](CN)C[C@H]2O)O3)[C@@H](O)[C@H](O)[C@H]1O
- Activity [1]: 0.34 µg/kg
- Activity [2]: 32%
